Each structure is given as a SMILES string. Counter-ions that a name gives are not always drawn. Where only a bound is given, the exact number is not on record here.

Sequence of CDK12/CycK (Q9NYV4 whole entry): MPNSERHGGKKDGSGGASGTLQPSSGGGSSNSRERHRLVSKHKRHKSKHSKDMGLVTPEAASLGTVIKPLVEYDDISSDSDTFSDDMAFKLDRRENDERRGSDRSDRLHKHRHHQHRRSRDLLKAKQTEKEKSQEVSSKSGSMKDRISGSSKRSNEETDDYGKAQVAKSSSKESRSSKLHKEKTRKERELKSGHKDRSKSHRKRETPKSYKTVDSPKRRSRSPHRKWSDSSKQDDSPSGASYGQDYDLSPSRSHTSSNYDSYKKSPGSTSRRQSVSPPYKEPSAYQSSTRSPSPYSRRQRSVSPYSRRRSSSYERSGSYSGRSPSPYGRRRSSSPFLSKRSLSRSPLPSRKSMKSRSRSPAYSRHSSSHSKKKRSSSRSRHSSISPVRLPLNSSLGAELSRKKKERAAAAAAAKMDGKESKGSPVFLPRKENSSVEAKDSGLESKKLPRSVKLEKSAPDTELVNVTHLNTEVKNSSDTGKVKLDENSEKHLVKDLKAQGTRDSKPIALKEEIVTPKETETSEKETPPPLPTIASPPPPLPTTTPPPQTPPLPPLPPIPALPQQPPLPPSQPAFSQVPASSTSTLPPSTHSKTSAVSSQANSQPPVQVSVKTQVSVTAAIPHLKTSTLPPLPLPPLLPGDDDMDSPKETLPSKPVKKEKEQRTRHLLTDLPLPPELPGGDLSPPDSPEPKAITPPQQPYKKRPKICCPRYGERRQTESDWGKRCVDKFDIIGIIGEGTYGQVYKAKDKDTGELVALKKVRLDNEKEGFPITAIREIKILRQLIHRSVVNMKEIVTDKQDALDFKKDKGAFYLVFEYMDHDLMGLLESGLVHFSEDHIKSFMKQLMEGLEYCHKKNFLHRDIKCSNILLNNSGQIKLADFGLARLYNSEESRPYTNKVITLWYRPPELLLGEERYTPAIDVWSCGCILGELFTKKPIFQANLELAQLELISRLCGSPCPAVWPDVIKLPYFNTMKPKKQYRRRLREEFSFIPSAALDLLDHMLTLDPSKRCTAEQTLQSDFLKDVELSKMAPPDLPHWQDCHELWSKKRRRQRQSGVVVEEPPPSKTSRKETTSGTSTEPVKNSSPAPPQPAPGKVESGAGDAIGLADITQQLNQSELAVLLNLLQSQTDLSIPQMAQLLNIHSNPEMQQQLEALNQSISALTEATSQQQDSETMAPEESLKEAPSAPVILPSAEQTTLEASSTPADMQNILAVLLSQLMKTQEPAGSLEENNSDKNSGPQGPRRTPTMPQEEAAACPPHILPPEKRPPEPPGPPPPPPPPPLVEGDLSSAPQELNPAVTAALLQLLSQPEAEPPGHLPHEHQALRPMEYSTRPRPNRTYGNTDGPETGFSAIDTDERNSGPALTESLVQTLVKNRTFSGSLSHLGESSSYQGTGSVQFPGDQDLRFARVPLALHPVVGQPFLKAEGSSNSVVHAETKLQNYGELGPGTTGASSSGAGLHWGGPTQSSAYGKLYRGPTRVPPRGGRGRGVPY
Sequence of CDK12/CycK (O75909 whole entry partner): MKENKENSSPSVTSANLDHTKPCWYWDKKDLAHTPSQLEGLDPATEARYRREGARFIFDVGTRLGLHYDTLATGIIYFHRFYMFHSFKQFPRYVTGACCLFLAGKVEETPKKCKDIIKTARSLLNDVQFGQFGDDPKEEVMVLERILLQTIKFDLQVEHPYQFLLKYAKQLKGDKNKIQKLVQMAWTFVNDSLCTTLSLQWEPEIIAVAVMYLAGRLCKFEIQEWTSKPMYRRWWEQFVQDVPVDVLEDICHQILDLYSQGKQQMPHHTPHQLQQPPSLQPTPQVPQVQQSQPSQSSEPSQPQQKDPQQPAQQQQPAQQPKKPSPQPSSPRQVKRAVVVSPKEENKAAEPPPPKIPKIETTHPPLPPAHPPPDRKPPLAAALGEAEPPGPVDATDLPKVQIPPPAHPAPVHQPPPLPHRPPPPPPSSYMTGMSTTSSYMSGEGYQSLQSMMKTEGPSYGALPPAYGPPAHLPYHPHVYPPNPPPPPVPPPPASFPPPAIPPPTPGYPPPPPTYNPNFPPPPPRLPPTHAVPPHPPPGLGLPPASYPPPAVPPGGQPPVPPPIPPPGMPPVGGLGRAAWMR

The test has as its target CDK12/CycK (Homo sapiens, UniProt Q9NYV4). The test is described as follows: Inhibition of CDK12 (ADP-Glo kinase assay). In kind it is biochemical. As to conditions: 60 nM CDK12/CycK, 30 minutes pre-incubation, 1 μM ATP, 0.5 μM RBER-IRStide substrate, 1 h at 25° C., read-out: CDK12/cyclin K IC50. As for the experimental part: Assay buffer comprised 50 mM HEPES pH 7.5, 1 mM DTT, 20 mM MgCl2, 3 mM MnCl2, 3 μM Na3VO4 and 50 μg/ml PEG8000. Kinase reactions were carried out in 384-well Optiplates™ (PerkinElmer 6007299). Test compounds were dissolved & diluted in dimethyl sulfoxide (DMSO) and cross diluted into assay buffer with a final DMSO concentration of 1% (v/v) in the assay. Test compounds (or 1% DMSO in control and blank wells) were pre-incubated with 60 nM CDK12/CycK for 30 minutes. After this time 1 μM Adenosine-5′-triphosphate (ATP) and 0.5 μM RBER-IRStide substrate (ProQinase 0863-0000-1) were added to commence the kinase reaction. Incubations were carried out for 1 h at 25° C. with kinase activity determined using the ADP-Glo™ reagent from Promega according to the manufacturer's instructions. Light generated is proportional to kinase activity and measured using a luminometer (EnVision, PerkinElmer). The signal obtained in the blank wells (containing no kinase) was subtracted from all other wells and IC50 values were determined by fitting a sigmoidal curve to % inhibition of control versus Log10 compound concentration.
Background: In ADP-Glo the light output rises with the ADP produced.
`C=CC(=O)N1CCC[C@H]1C(=O)N(C)CCc1cc2c(-c3cnn4ncccc34)ccnc2[nH]1` [Example 46, (S)-1-Acryloyl-N-methyl-N-(2-(4-(pyrazolo[1,5-b]pyridazin-3-yl)-1H-pyrrolo[2,3-b]pyridin-2-yl)ethyl)pyrrolidine-2-carboxamide]: the IC50 was 100 to 1000 nM.

With `CN(C)CC(=O)NCc1cc2c(-c3cnn4ncccc34)ccnc2[nH]1` [Example 117, 2-(Dimethylamino)-N-((4-(pyrazolo[1,5-b]pyridazin-3-yl)-1H-pyrrolo[2,3-b]pyridin-2-yl)methyl)acetamide Formate Salt], the IC50 was in the range of 1000 to 30000 nM.

On to `O=C(NCCc1cc2c(-c3cnn4ncccc34)ccnc2[nH]1)[C@@H]1CCCN1S(=O)(=O)c1ccccc1` [Example 89, (S)-1-(phenylsulfonyl)-N-(2-(4-(pyrazolo[1,5-b]pyridazin-3-yl)-1H-pyrrolo[2,3-b]pyridin-2-yl)ethyl)pyrrolidine-2-carboxamide], for which the IC50 is 100 to 1000 nM.

On to `C=CC(=O)Nc1ccc(C(=O)N2CC[C@H](c3cc4c(-c5cnn6ncccc56)ccnc4[nH]3)C2)cc1` [Example 150], for which the IC50 was less than 100 nM.

Turning to `NCCc1cc2c(-c3cccnc3)ccnc2[nH]1` [Example 104, 2-(4-(Pyridin-3-yl)-1H-pyrrolo[2,3-b]pyridin-2-yl)ethan-1-amine], the IC50 lay in the range of 1000 to 30000 nM.

Regarding `C=CC(=O)N1CCC(C(=O)NCc2cc3c(-c4cnn5ncccc45)ccnc3[nH]2)CC1` [Example 80, 1-Acryloyl-N-((4-(pyrazolo[1,5-b]pyridazin-3-yl)-1H-pyrrolo[2,3-b]pyridin-2-yl)methyl)piperidine-4-carboxamide], the IC50 fell in the range of 1000 to 30000 nM.

With `O=C(NCCc1cc2c(-c3cnn4ncccc34)ccnc2[nH]1)[C@@H]1CCCN1C(=O)/C=C/CN1CCCC1` [Example 85, (S,E)-N-(2-(4-(pyrazolo[1,5-b]pyridazin-3-yl)-1H-pyrrolo[2,3-b]pyridin-2-yl)ethyl)-1-(4-(pyrrolidin-1-yl)but-2-enoyl)pyrrolidine-2-carboxamide], the IC50 was 1000 to 30000 nM.

With `CN(C)C/C=C/C(=O)N1CC[C@@H](C(=O)N2CCC(c3cc4c(-c5cnn6ncccc56)ccnc4[nH]3)CC2)C1` [Example 67, (R,E)-4-(Dimethylamino)-1-(3-(4-(4-(pyrazolo[1,5-b]pyridazin-3-yl)-1H-pyrrolo[2,3-b]pyridin-2-yl)piperidine-1-carbonyl)pyrrolidin-1-yl)but-2-en-1-one], the IC50 was less than 100 nM.

Regarding `C=CC(=O)N1CCCC[C@@H]1C(=O)NCCc1cc2c(-c3cnn4ncccc34)ccnc2[nH]1` [Example 93, (R)-1-Acryloyl-N-(2-(4-(pyrazolo[1,5-b]pyridazin-3-yl)-1H-pyrrolo[2,3-b]pyridin-2-yl)ethyl)piperidine-2-carboxamide], the IC50 was less than 100 nM.

`O=C(NCCc1cc2c(-c3cnn4ncccc34)ccnc2[nH]1)[C@@H]1CCCN1` [Example 82, (S)—N-(2-(4-(pyrazolo[1,5-b]pyridazin-3-yl)-1H-pyrrolo[2,3-b]pyridin-2-yl)ethyl)pyrrolidine-2-carboxamide]: the IC50 lay in the range of 100 to 1000 nM.

Take `CN(C)C/C=C/C(=O)N1CCCC[C@@H]1C(=O)NCCc1cc2c(-c3cnn4ncccc34)ccnc2[nH]1` [Example 88, (R,E)-1-(4-(Dimethylamino)but-2-enoyl)-N-(2-(4-(pyrazolo[1,5-b]pyridazin-3-yl)-1H-pyrrolo[2,3-b]pyridin-2-yl)ethyl)piperidine-2-carboxamide Formate Salt]: the IC50 lay within 100 to 1000 nM.

In the case of `O=S(=O)(NCc1cc2c(-c3cnn4ncccc34)ccnc2[nH]1)C1CC1` [Example 118, N-((4-(Pyrazolo[1,5-b]pyridazin-3-yl)-1H-pyrrolo[2,3-b]pyridin-2-yl)methyl)cyclopropanesulfonamide], the IC50 is 1000 to 30000 nM.

Turning to `CN(C)CCOCc1cc2c(-c3cnn4ncccc34)ccnc2[nH]1` [Example 168, N,N-Dimethyl-2-((4-(pyrazolo[1,5-b]pyridazin-3-yl)-1H-pyrrolo[2,3-b]pyridin-2-yl)methoxy)ethan-1-amine Formate], the IC50 was 1000 to 30000 nM.

For the compound `C=CC(=O)N1CCOC(C(=O)NCCc2cc3c(-c4cnn5ncccc45)ccnc3[nH]2)C1` (stereo not drawn) [Example 60, 4-Acryloyl-N-(2-(4-(pyrazolo[1,5-b]pyridazin-3-yl)-1H-pyrrolo[2,3-b]pyridin-2-yl)ethyl)morpholine-2-carboxamide], the IC50 was less than 100 nM.

Consider `C=CC(=O)Nc1cccc(C(=O)NCCc2cc3c(-c4cnn5ncccc45)c(Cl)cnc3[nH]2)c1` [Example 56, 3-Acrylamido-N-(2-(5-chloro-4-(pyrazolo[1,5-b]pyridazin-3-yl)-1H-pyrrolo[2,3-b]pyridin-2-yl)ethyl)benzamide], for which the IC50 was less than 100 nM.

`C=CC(=O)Nc1cncc(C(=O)N2CCC(c3cc4c(-c5cnn6ncccc56)ccnc4[nH]3)C2)c1` (stereo not drawn) [Example 65, N-(5-(3-(4-(Pyrazolo[1,5-b]pyridazin-3-yl)-1H-pyrrolo[2,3-b]pyridin-2-yl)pyrrolidine-1-carbonyl)pyridin-3-yl)acrylamide]: the IC50 is less than 100 nM.

Turning to `O=C(NCc1cc2c(-c3cnn4ncccc34)ccnc2[nH]1)C1CC1` [Example 116, N-((4-(Pyrazolo[1,5-b]pyridazin-3-yl)-1H-pyrrolo[2,3-b]pyridin-2-yl)methyl)cyclopropanecarboxamide], the IC50 fell in the range of 1000 to 30000 nM.

For `CC(=O)N1CCO[C@H](C(=O)NCCc2cc3c(-c4cnn5ncccc45)ccnc3[nH]2)C1` (single isomer, unassigned) [Example 62], the IC50 is less than 100 nM.

For the compound `C=CC(=O)N[C@H]1CC[C@@H](C(=O)NCc2cc3c(-c4cnn5ncccc45)ccnc3[nH]2)CC1` [Example 187, (1s,4s)-4-Acrylamido-N-((4-(pyrazolo[1,5-b]pyridazin-3-yl)-1H-pyrrolo[2,3-b]pyridin-2-yl)methyl)cyclohexane-1-carboxamide], the IC50 fell in the range of 1000 to 30000 nM.

With `C=CC(=O)N1CCC[C@H]1C(=O)N(CC)CCc1cc2c(-c3cnn4ncccc34)ccnc2[nH]1` [Example 50, (S)-1-Acryloyl-N-ethyl-N-(2-(4-(pyrazolo[1,5-b]pyridazin-3-yl)-1H-pyrrolo[2,3-b]pyridin-2-yl)ethyl)pyrrolidine-2-carboxamide], the IC50 lay within 1000 to 30000 nM.

For `O=C([C@@H]1CCCN1C(=O)CCl)N1CCC(c2cc3c(-c4cnn5ncccc45)ccnc3[nH]2)C1` (stereo partly drawn) [Example 155, 2-Chloro-1-((2S)-2-(3-(4-(pyrazolo[1,5-b]pyridazin-3-yl)-1H-pyrrolo[2,3-b]pyridin-2-yl)pyrrolidine-1-carbonyl)pyrrolidin-1-yl)ethan-1-one], the IC50 is less than 100 nM.

Turning to `C=CC(=O)N1CC[C@@H](C(=O)NCc2cc3c(-c4cnn5ncccc45)ccnc3[nH]2)C1` [Example 179, (R)-1-Acryloyl-N-((4-(pyrazolo[1,5-b]pyridazin-3-yl)-1H-pyrrolo[2,3-b]pyridin-2-yl)methyl)pyrrolidine-3-carboxamide], the IC50 lay within 1000 to 30000 nM.

Take `CN(C)CCNC(=O)c1cc2c(-c3cnn4ncccc34)ccnc2[nH]1` [Example 5, N-(2-(Dimethylamino)ethyl)-4-(pyrazolo[1,5-b]pyridazin-3-yl)-1H-pyrrolo[2,3-b]pyridine-2-carboxamide]: the IC50 fell in the range of 1000 to 30000 nM.

On to `C=CC(=O)N1CCC[C@H]1C(=O)NCCc1cc2c(-c3ccncc3)ccnc2[nH]1` [Example 95, (S)-1-Acryloyl-N-(2-(4-(pyridin-4-yl)-1H-pyrrolo[2,3-b]pyridin-2-yl)ethyl)pyrrolidine-2-carboxamide], for which the IC50 was 1000 to 30000 nM.

For the compound `C=CC(=O)Nc1cccc(C(=O)NCc2cc3c(-c4cnn5ncccc45)ccnc3[nH]2)c1` [Example 180, 3-Acrylamido-N-((4-(pyrazolo[1,5-b]pyridazin-3-yl)-1H-pyrrolo[2,3-b]pyridin-2-yl)methyl)benzamide], the IC50 lay within 100 to 1000 nM.

Take `c1cnn2ncc(-c3ccnc4[nH]c(C5CCNC5)cc34)c2c1` (stereo not drawn) [Example 122, 3-[2-(pyrrolidin-3-yl)-1H-pyrrolo[2,3-b]pyridine-4-yl)pyrazolo[1,5-b]pyridazine]: the IC50 is less than 100 nM.

On to `C=CC(=O)N1CCC[C@H]1C(=O)N1CCC(c2cc3c(-c4cnn5ncccc45)ccnc3[nH]2)C1` (stereo partly drawn) [Example 153, 1-((2S)-2-(3-(4-(Pyrazolo[1,5-b]pyridazin-3-yl)-1H-pyrrolo[2,3-b]pyridin-2-yl)pyrrolidine-1-carbonyl)pyrrolidin-1-yl)prop-2-en-1-one], for which the IC50 is less than 100 nM.

As to `COc1ccc(Cn2cc(-c3ccnc4[nH]ccc34)nn2)cc1` [Example 135, 4-(1-(4-Methoxybenzyl)-1H-1,2,3-triazol-4-yl)-1H-pyrrolo[2,3-b]pyridine], the IC50 was in the range of 1000 to 30000 nM.

As to `C=CC(=O)N1CCC[C@H]1C(=O)N[C@H]1C[C@@H](c2cc3c(-c4cnn5ncccc45)ccnc3[nH]2)C1` [Example 205, (S)-1-Acryloyl-N-((1 S,3R)-3-(4-(pyrazolo[1,5-b]pyridazin-3-yl)-1H-pyrrolo[2,3-b]pyridin-2-yl)cyclobutyl)pyrrolidine-2-carboxamide], the IC50 was less than 100 nM.

On to `c1cnc2ncc(-c3ccnc4[nH]ccc34)n2c1` [Example 29, 3-(1H-Pyrrolo[2,3-b]pyridin-4-yl)imidazo[1,2-a]pyrimidine], for which the IC50 lay in the range of 1000 to 30000 nM.

The values are drawn from patent publication US11407767B2, “Heterocyclyl substituted pyrrolopyridines that are inhibitors of the CDK12 kinase” (The University of Nottingham, priority 2017, dated 2022).
